The text below walks through data of PMC12040169 (PLOS Biology, 2025).

The structures appear in SMILES notation.

Broadly, the viability is a read-out of living cells in per cent, often relative to untreated cells.

One series can be described thus: in vitro. To be noted: human, hela cells, % viability.
Regarding `O=C(NCCc1nc2ccccc2[nH]1)c1cccs1` [CBK020529], the viability at 28.5 h, 10 µM came to 99.4%.
For `Cc1nonc1-c1csc(CC(C)n2cc(Cl)cn2)n1` (stereo not shown) [CBK304704], the viability at 28.5 h, 10 µM is 92.2%.
Turning to `O=C(O)Cn1c(=O)[nH]c2c(-c3ccccc3)c[nH]c2c1=O` [CBK287218], the viability at 28.5 h, 10 µM stood at 87.2%.
Consider `N#CC(C(=O)CN1CCCC1)c1ccccc1` (stereo not shown) [CBK269333], for which the viability at 28.5 h, 10 µM stood at 98.1%.
In the case of `Cc1ncsc1CCOc1nccnc1N1CCCC1` [CBK115752], the viability at 28.5 h, 10 µM turned out to be 86.5%.
As to `NC(=O)C1CCN(C(=O)CN(c2ccccc2)S(=O)(=O)c2ccccc2[N+](=O)[O-])CC1` [CBK265320], the viability at 28.5 h, 10 µM was 78%.
The same measure, in the same setting: under `CC(=O)Nc1cccc(-c2cnc3[nH]c(=O)n([C@@H](C)c4ccccc4)c3n2)c1` [CBK064159] stands 98.2%; under `CS(=O)(=O)c1nc(-c2ccccc2)ns1` [CBK017338], 90.6%.
The same measure, in the same setting: the value for `COc1cc(CN2CCN(C/C=C/c3ccccc3)CC2)cc(I)c1O` [CBK261882] was 91.7%; that for `CCOC(=O)CCc1nc2ccccc2nc1O` [CBK264526] was 106%.
Still for that read-out and setting: under `COc1ncc(-c2cncc(N3CCN(c4ccc(OC)c(OC)c4)CC3)n2)c(OC)n1` [CBK065169] stands 89.5%; under `Cc1c(F)cccc1CN1CCN(S(=O)(=O)c2ccc(C(=O)c3ccccc3)cc2)CC1` [CBK062929], 102%; under `O=C(C1CC2C=CC1C21CC1)N1CCCC(c2nc3ccccc3[nH]2)C1` (stereo not shown) [CBK281513], 91.4%.
`CC(=O)Nc1ccc(S(=O)(=O)NCC#N)cc1Cl` [CBK045102]: the viability at 28.5 h, 10 µM is 97.3%.
On the same count and under the same terms, under `O=C(COc1ccccc1)Nc1ccccc1Sc1ncnc2sc3c(c12)CCCC3` [CBK266171] stands 98.4%; under `Cc1cccc(CNC(=O)CC2CCN(Cc3cccc(C(F)(F)F)c3)CC2)n1` [CBK285950], 105%; under `Clc1ccc(COc2nccnc2OCCOc2ccccc2)cc1Cl` [CBK161853], 92.5%.
For the compound `Cc1ccc(S(=O)(=O)NC(=O)N2CCCC2)cc1` [CBK001984], the viability at 28.5 h, 10 µM worked out at 87.3%.
On the same count and under the same terms, under `CN(C)[C@@H]1CN(Cc2ccccn2)C[C@H]1c1cn(C)c2ccccc12` [CBK284582] stands 97.9%; under `CN1N=C(N)c2cn([C@@H]3O[C@H](COP(=O)(O)O)[C@H](O)C3O)c3ncnc1c23` (stereo partly shown) [CBK201301], 73.9%; under `Cc1nc2ccccc2c(=O)n1CC(N)=O` [CBK004145], 89.8%.
Same read-out and setting: under `COc1cccc(CC(=O)Nc2ncccc2O)c1` [CBK305047] stands 95.3%; under `Cc1nc(C)c(CC(=O)N(C)CC2OCCc3ccccc32)s1` (stereo not shown) [CBK281478], 90.9%.
In the case of `CC(=O)N1C[C@H](O)C[C@H]1C(=O)N1CC[C@H]2NC(=O)[C@H](Cc3ccccc3)NC(=O)C3(C/C=C/C[C@H]2C1)CCOCC3` [CBK292204], the viability at 28.5 h, 10 µM amounted to 88.7%.
Same read-out and setting: under `O=C(c1cccs1)N1C[C@@H]2CCCCN(C3CCOCC3)[C@@H]2C1` [CBK285503] stands 107%; under `O=C(c1ccc(F)cc1)C1CCN(C(=O)c2cccnc2NCc2ccc3c(c2)OCO3)CC1` [CBK160114], 113%; under `Cc1cc(C)n2nc(CC(=O)NCCCn3cc(Cl)cn3)nc2n1` [CBK307276], 84.3%.
`Cc1csc(S(=O)(=O)Cc2nnc(C)n2C2CC2)n1` [CBK305494]: the viability at 28.5 h, 10 µM worked out at 98.4%.
For `O=c1[nH]c(CSc2nnc(COc3ccccc3)o2)nc2ccccc12` [CBK269869], the viability at 28.5 h, 10 µM amounted to 84.9%.
On the same count and under the same terms, under `O=C(O)C1CCCCN1S(=O)(=O)c1ccc(Br)cc1` (stereo not shown) [CBK101789] stands 88.6%; under `CCOC(=O)N1CCN(C(=O)Nc2ccc3oc(=O)n(C)c3c2)CC1` [CBK306250], 109%; under `Cc1ccc2[nH]c3c(c2c1)CCNC31CCN(C(=O)[C@@H]2CCCC[C@@H]2C(=O)O)CC1` [CBK047222], 89.9%.
Still for that read-out and setting: the value for `O=C1c2ccccc2C(=O)N1c1ccc(S(=O)(=O)NCCCO)c2ccccc12` [CBK262509] was 105%.
On the same count and under the same terms, the value for `O=C(c1cc(C(F)(F)F)cc(C(F)(F)F)c1)N1CCN(Cc2ccc3c(c2)OCO3)CC1` [CBK074756] was 98.2%; that for `O=C(c1cc[nH]n1)N1CCCC(c2cc3ccccc3cn2)C1` (stereo not shown) [CBK284921] was 85.2%.
For the compound `COc1cc2c(cc1NC(=O)c1cc(-c3cccnc3)nc3ccc(C)cc13)oc1ccccc12` [CBK267722], the viability at 28.5 h, 10 µM came out at 92.1%.
Regarding `Cn1cnc(S(=O)(=O)Nc2cccc3cc[nH]c23)c1` [CBK159554], the viability at 28.5 h, 10 µM was determined as 94%.
For the compound `Cc1onc(-c2ccccc2)c1C(=O)NC(=S)Nc1sc2c(c1C#N)CCC2` [CBK267492], the viability at 28.5 h, 10 µM is 89.1%.
Still for that read-out and setting: the value for `O=C(COc1cccc2ccccc12)N/N=C/c1ccco1` [CBK086853] was 103%; that for `COc1ccccc1-c1nccnc1NCCCO` [CBK088971] was 98.8%; that for `CC(=O)N1C[C@@H](c2cccc(C)c2)[C@@H]2CN(Cc3ccncc3)CC[C@@H]21` [CBK283370] was 96.1%.
For `NC(=O)CN1CCCC2(CCN(C(=O)Cc3c[nH]c4ccccc34)C2)C1` (stereo not shown) [CBK132046], the viability at 28.5 h, 10 µM came to 87.4%.
On to `COc1ccc(S(=O)(=O)NC(C)C(=O)NCc2cccnc2)cc1Cl` (stereo not shown) [CBK269384], for which the viability at 28.5 h, 10 µM was determined as 95.8%.
On the same count and under the same terms, the value for `CC(=O)c1ccc(NC(=O)c2cccc(Cl)c2)cc1` [CBK033939] was 89.3%.
Still for that read-out and setting: the value for `Cn1nc(CO)c2c1CCN(CC(=O)Nc1nc(C(C)(C)C)cs1)C2` [CBK307161] was 85.7%; that for `O=S(=O)(NC1c2cccc3cccc(c23)C1Sc1ncccn1)c1ccccc1` (stereo not shown) [CBK264706] was 103%; that for `COC(=O)COc1nccnc1-c1ccc(OC(F)(F)F)cc1` [CBK106849] was 90.4%.
Turning to `Cc1ccc(-n2c(C)c([N+](=O)[O-])c3ccc(O)c(CN(C)C)c32)cc1` [CBK115328], the viability at 28.5 h, 10 µM was 88.8%.
Same read-out and setting: the value for `COCC(=O)N[C@H]1C[C@H]2C(=O)Nc3ccc(-c4cccs4)cc3C(=O)N2C1` [CBK289358] was 110%.
Consider `Fc1ccc(Sc2ccc(C(F)(F)F)cn2)cc1` [CBK115235], for which the viability at 28.5 h, 10 µM came out at 106%.
`CCOc1ccc(CSC2=NCCN2)cc1Cl` [CBK027449C]: the viability at 28.5 h, 10 µM is 92.4%.
On the same count and under the same terms, the value for `N#Cc1c(N)nc2c(c1-c1ccc(Cl)cc1)CCCCCCCCCC2` [CBK262322] was 90.6%.
For the compound `O=C(Oc1ccccc1)c1cc(Cl)cnc1Cl` [CBK090320], the viability at 28.5 h, 10 µM was 101%.
Still for that read-out and setting: the value for `O=c1c2cc(F)ccc2nc2n1CCN(Cc1cccs1)CC2` [CBK284859] was 110%.
Consider `O=C(O)CC(NCc1ccco1)C(=O)Nc1cccc(F)c1` (stereo not shown) [CBK286910], for which the viability at 28.5 h, 10 µM was found to be 97%.
The same measure, in the same setting: under `COc1cccc(CN2CCN(C(=O)N3CCCC3)[C@@H](C)C2)c1` [CBK285491] stands 107%; under `O=C(Oc1ccc(F)cc1C(=O)/C=C/c1cccs1)c1ccc([N+](=O)[O-])cc1` [CBK264925], 91.2%; under `NC(=O)CC1C(=O)N(c2ccc(F)cc2)C(=S)N1NC(=O)CCc1ccccc1` (stereo not shown) [CBK268978A], 108%.
For the compound `O=C(Nc1cccnc1)c1ccc(NC(=O)C2OCCc3ccccc32)cc1` (stereo not shown) [CBK269963], the viability at 28.5 h, 10 µM is 86.6%.
With `O=C(O)c1ccc(-c2ccc(/C=C/c3[nH]c(=O)[nH]c(=O)c3[N+](=O)[O-])o2)cc1` [CBK268055], the viability at 28.5 h, 10 µM was 105%.
Still for that read-out and setting: under `Cc1ccn(CCNC(=O)C(C)Cc2cccs2)n1` (stereo not shown) [CBK281625] stands 106%; under `O=C(NCCN1CCC(O)(c2ccc(F)cc2)CC1)C1CC1` [CBK283164], 97.1%.
With `COc1ccc(-c2cc(C(F)(F)F)nc(SCC(=O)Nc3cccnc3)n2)cc1OC` [CBK266148], the viability at 28.5 h, 10 µM came out at 103%.
On the same count and under the same terms, the value for `OC(CNc1nccnc1-c1ccccc1Cl)COc1ccccc1` (stereo not shown) [CBK037085] was 92%; that for `COCc1ccc(-c2nccnc2NS(C)(=O)=O)cc1` [CBK049631] was 101%.
The same measure, in the same setting: the value for `COc1ccc(-c2ocnc2C(=O)NCCc2ccccc2F)cc1` [CBK283941] was 90%; that for `O=C(CN1CCN(c2ccccc2)CC1)Nc1ccc(Cl)cc1C(=O)c1ccccc1` [CBK265827] was 107%; that for `FC(F)(F)Oc1cccc(-c2cncc(NCc3cccs3)n2)c1` [CBK065909] was 97.5%.
The same measure, in the same setting: the value for `CCc1noc(C)c1C(=O)NCCN1CCCCC1C` (stereo not shown) [CBK282219] was 98.9%; that for `CNS(=O)(=O)c1ccc(C)c(C(=O)N(C)Cc2cnn(C)c2)c1` [CBK304026] was 89.1%.
With `CCOc1cccc(-c2cn3ccnc3c(NCCc3ccccn3)n2)c1` [CBK066586], the viability at 28.5 h, 10 µM was 94.4%.
Same read-out and setting: under `COc1ccc(OC(=O)c2cc(S(=O)(=O)N3CCCCCC3)ccc2Cl)cc1` [CBK264562] stands 95.9%.
For `Cc1cccc(NC(=O)C(c2ccccc2)N2CCOCC2)c1` (stereo not shown) [CBK269331], the viability at 28.5 h, 10 µM is 103%.
Same read-out and setting: the value for `CN(C)CC(=O)NC(Cc1cccs1)c1nccs1` (stereo not shown) [CBK285061] was 91.1%.
With `COc1cc(Cl)cc(C2NC(=S)NC(c3ccccc3)=C2C(C)=O)c1OCC(=O)O` (stereo not shown) [CBK268801], the viability at 28.5 h, 10 µM amounted to 98.3%.
For the compound `O=C(c1ccc(Oc2ccccc2)cc1)N1CCC2(CCN(Cc3ccccc3)C2)C1` (stereo not shown) [CBK136833], the viability at 28.5 h, 10 µM amounted to 99.3%.
Still for that read-out and setting: under `CC(=O)N1CCC(NC[C@H]2C[C@@H]3CCN2C[C@@H]3c2cc(C3CCCC3)nc(C)n2)CC1` [CBK289129] stands 84.3%.

The series is the same for the next values; noted with them: human, hela cells, % viability, bulk resorufin, single well.
`NC(=O)C(=O)c1cn(Cc2ccccc2)c2ccccc12` [CBK288473]: the viability at 28.5 h, 10 µM was found to be 96.2%.
Same read-out and setting: the value for `CNC(Cc1ccccc1)c1ccccc1OC` (stereo not shown) [CBK011943C] was 88.6%.
